Test results published in article PMC5848165 (Toxins, 2018).
Residues, ends and D or L forms follow the SMILES beside them.

Tests used:
[1] = target: T1, Nav1.7 D816R (Homo sapiens, UniProt Q15858, D827R); experiment: Whole-cell patch clamp, Nav1.7 mutant D816R in HEK293 cells; assay type: cell-based
T1 construct: expressed in transfected cells; host or cells: HEK293 (HEK293T) cells, transient
From the text: We next investigated the critical residues in DIIS3-S4 linker that determined the sensitivity of Nav1.7 to JZTX-34. An acidic residue, D816, is present in the DIIS3-S4 linker of Nav1.7, while the corresponding residue in Nav1.5 is an alkaline amino acid, R800. To determine whether the acidic residue D816 occupies an important role in toxin binding, we constructed two mutants: D816R of Nav1.7 and R800D of Nav1.5. One µM of JZTX-34 inhibited 54.3 ± 5.2% of WT Nav1.7 currents (Figure 4A), but only 16.8 ± 4.6% currents of D816R were inhibited at the same concentration (Figure 4B). […] To further confirm the key role of D816R in blocking Nav1.7 by JZTX-34, we examined the effect of JZTX-34 on Nav1.5 mutant R800D. […] Thus, the acidic residue D816 in DIIS3-S4 linker may be critical for the sensitivity of Nav1.7 to JZTX-34.
Figure 4 Effects of JZTX-34 on mutants of Nav1.7 and Nav1.5. (A) Amino acid sequence alignment of DII S3-S4 linker of Nav1.5 and Nav1.7 and schematic diagram of sodium channel α subunit. The positions of amino acids of interest are shaded in bold black. […]
(§1) The HEK293T cells were maintained in standard culture conditions (5% CO2 and 37 °C). […] After culturing for 36–72 h, cells with obvious green fluorescence were selected for sodium currents recordings the internal solution for sodium currents recording that contained (in mM) 140 CsF, 5 NaCl, 10 HEPES, 3 Na2-ATP, and 10 EGTA. […]
(§2) Sodium currents were recorded from DRG, HEK293, and ND cells by the whole-cell patch-clamp technique at 25 °C. […] Experiments date were acquired from whole-cell Axon 700B patch clamp amplifier (Molecular Devices, Sunnyvale, CA, USA) and analyzed by the program Clampfit10.0 (Molecular Devices, Sunnyvale, CA, USA) and Sigmaplot. […]
Data from Axon 700B patch clamp were analyzed by Clampfit10.0 (Molecular Devices, Sunnyvale, CA, USA). […] The G-V curves were obtained by calculating the conductance (G) at each voltage (V) using the equation G = I/(V1 − Vrev), with Vrev being the reversal potential determined for each cell individually. […]

[2] = system: Nav1.1; experiment: Whole-cell patch clamp, Nav1.1 in HEK293 cells; assay type: cell-based, rat; conditions: 1 µM, −10 mV from −80 mV
From the text: Nine sodium channel subtypes have been identified and classified as TTX-S (Nav1.1–Nav1.4, Nav1.6, and Nav1.7) or TTX-R types (Nav1.5, Nav1.8, and Nav1.9). […] However, the subtype selectivity of JZTX-34 on the subtype of sodium channel is still unknown. In this work, effects of JZTX-34 on VGSC subtypes (Nav1.1–Nav1.8) were examined. Nav1.1–Nav1.7 were transfected into HEK293 cells and Nav1.8 currents were expressed in ND cells. Inward sodium currents were elicited by a 50 ms depolarizing potential to −10 mV from a holding potential of −80 mV every 5 s. […] No effects on other sodium channel subtypes were found (Nav1.1, Nav1.2, Nav1.4–Nav1.6, and Nav1.8) (Figure S2). […]
as §1, §2

T1 sequence (Q15858 other isoform, or with tags, fused parts or gaps D816R): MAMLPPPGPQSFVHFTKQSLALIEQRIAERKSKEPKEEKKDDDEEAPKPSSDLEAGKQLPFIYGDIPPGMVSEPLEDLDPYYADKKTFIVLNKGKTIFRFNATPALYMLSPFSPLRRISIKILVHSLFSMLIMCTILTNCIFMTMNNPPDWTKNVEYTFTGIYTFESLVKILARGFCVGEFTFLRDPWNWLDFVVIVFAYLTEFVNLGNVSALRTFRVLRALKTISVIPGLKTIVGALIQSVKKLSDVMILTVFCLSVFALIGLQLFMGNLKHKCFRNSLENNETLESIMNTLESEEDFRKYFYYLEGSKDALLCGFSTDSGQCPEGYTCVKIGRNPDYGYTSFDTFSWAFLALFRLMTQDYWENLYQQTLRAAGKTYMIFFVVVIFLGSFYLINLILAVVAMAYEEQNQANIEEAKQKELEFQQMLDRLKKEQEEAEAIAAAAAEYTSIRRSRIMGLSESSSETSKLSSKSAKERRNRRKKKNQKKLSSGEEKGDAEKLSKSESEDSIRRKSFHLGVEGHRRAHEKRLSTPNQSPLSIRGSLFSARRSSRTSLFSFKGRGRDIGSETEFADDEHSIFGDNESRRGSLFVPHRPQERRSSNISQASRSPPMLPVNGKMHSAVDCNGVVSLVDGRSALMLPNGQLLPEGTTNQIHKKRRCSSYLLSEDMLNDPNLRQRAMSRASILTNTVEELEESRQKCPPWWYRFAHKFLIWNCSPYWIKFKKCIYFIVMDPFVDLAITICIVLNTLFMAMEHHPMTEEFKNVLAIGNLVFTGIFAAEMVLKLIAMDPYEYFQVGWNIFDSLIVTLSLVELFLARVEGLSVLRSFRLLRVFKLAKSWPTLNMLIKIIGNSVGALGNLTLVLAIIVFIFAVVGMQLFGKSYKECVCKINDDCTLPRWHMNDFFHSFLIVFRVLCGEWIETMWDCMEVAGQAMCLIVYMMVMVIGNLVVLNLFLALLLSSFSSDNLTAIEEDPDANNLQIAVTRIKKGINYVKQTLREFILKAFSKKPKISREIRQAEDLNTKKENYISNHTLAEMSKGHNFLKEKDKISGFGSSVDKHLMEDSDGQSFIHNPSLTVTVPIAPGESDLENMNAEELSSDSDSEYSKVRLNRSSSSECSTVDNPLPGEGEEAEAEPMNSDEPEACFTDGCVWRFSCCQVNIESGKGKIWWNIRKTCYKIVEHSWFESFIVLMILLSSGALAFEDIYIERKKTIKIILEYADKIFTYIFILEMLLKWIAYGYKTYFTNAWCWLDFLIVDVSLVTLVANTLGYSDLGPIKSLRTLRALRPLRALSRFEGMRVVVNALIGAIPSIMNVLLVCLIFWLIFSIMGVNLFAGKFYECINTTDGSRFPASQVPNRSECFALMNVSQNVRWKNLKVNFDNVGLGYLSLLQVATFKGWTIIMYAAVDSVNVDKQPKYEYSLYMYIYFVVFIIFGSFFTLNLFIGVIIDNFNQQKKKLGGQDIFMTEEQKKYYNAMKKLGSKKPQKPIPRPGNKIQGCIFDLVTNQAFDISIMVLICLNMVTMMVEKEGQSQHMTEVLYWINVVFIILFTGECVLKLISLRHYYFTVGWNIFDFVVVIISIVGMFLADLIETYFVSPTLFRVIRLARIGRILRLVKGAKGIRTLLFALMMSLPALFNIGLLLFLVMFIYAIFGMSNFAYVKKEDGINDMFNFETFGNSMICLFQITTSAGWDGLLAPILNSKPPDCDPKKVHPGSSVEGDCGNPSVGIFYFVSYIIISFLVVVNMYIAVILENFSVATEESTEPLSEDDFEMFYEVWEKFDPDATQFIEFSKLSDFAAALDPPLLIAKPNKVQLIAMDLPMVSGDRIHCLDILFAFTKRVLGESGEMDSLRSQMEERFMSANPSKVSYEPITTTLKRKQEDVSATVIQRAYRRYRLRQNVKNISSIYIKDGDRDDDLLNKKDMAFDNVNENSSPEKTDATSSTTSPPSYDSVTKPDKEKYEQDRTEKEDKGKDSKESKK
T1 sequence (Q07699 19-218, further chain): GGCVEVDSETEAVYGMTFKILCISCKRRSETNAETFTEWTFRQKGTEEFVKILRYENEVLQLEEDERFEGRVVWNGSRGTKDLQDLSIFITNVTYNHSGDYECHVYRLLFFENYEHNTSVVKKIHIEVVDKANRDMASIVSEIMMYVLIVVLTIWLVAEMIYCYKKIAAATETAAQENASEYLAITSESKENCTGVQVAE

Compound: CC(C)C[C@@H]1NC(=O)[C@H](Cc2c[nH]c3ccccc23)NC(=O)[C@H](CCC(=O)O)NC(=O)[C@H](CCCNC(=N)N)NC(=O)[C@@H](NC(=O)[C@H](C)N)CSSC[C@@H]2NC(=O)[C@@H]3CSSC[C@@H](C(=O)N[C@H](C(=O)N[C@@H](Cc4c[nH]c5ccccc45)C(=O)N[C@@H](CC(=O)O)C(=O)N[C@@H](Cc4c[nH]c5ccccc45)C(=O)N[C@H](C(=O)N[C@H](C(=O)O)C(C)C)[C@@H](C)O)C(C)C)NC(=O)[C@H](Cc4c[nH]cn4)NC(=O)[C@H](Cc4ccc(O)cc4)NC(=O)[C@@H]4CCCN4C(=O)[C@H](Cc4c[nH]c5ccccc45)NC(=O)[C@H](CCCCN)NC(=O)[C@H](CCCCN)NC(=O)[C@H](CCCNC(=N)N)NC(=O)[C@H](CSSC[C@H](NC(=O)CNC(=O)CNC1=O)C(=O)N[C@@H](CO)C(=O)N[C@@H](CCCCN)C(=O)N[C@@H](CC(=O)O)C(=O)N[C@@H](C)C(=O)N[C@@H](CC(=O)O)C(=O)N3)NC(=O)[C@H](CCC(=O)O)NC(=O)[C@H](CC(C)C)NC(=O)[C@H](Cc1c[nH]cn1)NC(=O)[C@H](C)NC2=O [JZTX-34, Jingzhaotoxin-34] (HELM PEPTIDE1{A.C.R.E.W.L.G.G.C.S.K.D.A.D.C.C.A.H.L.E.C.R.K.K.W.P.Y.H.C.V.W.D.W.T.V}$PEPTIDE1,PEPTIDE1,2:R3-16:R3|PEPTIDE1,PEPTIDE1,9:R3-21:R3|PEPTIDE1,PEPTIDE1,15:R3-29:R3$$$V2.0; N-terminus and C-terminus assumed)
- inhibition at 1 µM ([1]; HEK293, 1 µM, read-out: inhibition of Nav1.7 D816R currents): 16.8 ± 4.6%
- IC50 ([1]; Hill fit, n = 5): 19.5 µM
- decrease of binding affinity by D816R vs WT Nav1.7 ([1]; relative to WT Nav1.7): about 32 fold
- effect on Nav1.1 currents [2]: No effects
